Data from article PMC9024363, “Study on the Biochemical Characterization and Selectivity of Three β-Glucosidases From Bifidobacterium adolescentis ATCC15703” (Frontiers in Microbiology, 2022).

How the values were obtained:
Format in all cases: biochemical
[1] = target: T1, BaBgl3A (Bifidobacterium adolescentis, UniProt A1A2P2); test: TLC and HPLC of products; settings: optimum pH, 37 °C, 2 h; 5 mg/ml substrate
T1 construct: gene BAD_1194; GH3; N-terminus from primer MSENTY
T1 sequence (A1A2P2 1-751): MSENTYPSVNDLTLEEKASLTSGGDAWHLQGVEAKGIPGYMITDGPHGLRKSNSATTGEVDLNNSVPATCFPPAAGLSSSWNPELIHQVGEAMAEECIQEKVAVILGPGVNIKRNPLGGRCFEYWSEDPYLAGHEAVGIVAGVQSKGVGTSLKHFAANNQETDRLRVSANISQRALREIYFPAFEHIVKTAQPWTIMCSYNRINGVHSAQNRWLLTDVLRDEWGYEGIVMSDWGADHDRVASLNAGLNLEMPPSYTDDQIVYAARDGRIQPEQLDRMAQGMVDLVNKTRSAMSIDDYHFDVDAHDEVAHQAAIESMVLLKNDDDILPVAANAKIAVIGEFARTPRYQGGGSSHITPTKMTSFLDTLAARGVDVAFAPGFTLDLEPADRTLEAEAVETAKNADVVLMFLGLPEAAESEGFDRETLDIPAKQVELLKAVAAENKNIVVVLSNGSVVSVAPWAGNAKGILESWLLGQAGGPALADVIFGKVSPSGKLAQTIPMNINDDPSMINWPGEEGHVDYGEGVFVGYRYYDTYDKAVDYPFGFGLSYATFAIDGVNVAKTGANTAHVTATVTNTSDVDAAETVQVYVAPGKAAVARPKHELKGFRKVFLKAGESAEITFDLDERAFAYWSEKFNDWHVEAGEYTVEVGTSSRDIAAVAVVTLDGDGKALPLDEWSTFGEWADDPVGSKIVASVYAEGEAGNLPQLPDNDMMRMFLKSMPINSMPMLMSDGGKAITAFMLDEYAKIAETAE

[2] = target: T2, BaBgl3B (Bifidobacterium adolescentis, UniProt A1A2P5); test: pNPβGlc hydrolysis, absorbance […] nm
T2 construct: gene bglX; GH3; N-terminus from primer MSSCGC
T2 sequence (A1A2P5 1-809): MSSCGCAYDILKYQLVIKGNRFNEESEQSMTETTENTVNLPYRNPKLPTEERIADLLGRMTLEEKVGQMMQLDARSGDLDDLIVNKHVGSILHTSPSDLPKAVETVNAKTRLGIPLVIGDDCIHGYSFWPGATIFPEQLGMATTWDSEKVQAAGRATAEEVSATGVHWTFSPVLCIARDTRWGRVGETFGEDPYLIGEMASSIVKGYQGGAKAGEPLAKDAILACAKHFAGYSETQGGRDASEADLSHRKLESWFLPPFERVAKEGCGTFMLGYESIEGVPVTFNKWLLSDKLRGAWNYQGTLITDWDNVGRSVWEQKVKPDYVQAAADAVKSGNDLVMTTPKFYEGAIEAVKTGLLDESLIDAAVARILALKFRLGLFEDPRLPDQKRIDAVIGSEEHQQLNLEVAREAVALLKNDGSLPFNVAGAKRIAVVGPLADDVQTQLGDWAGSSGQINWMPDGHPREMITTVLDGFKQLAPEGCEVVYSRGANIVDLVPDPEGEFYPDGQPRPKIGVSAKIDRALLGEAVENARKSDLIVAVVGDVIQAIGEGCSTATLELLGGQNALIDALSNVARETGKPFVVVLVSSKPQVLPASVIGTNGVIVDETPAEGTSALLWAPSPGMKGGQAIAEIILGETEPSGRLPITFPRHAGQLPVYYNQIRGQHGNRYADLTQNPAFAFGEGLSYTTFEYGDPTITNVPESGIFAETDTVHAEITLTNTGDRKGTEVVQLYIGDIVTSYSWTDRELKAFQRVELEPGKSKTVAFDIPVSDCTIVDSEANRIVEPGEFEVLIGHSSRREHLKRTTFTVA

[3] = target: T3, BaBgl1A (Bifidobacterium adolescentis, UniProt A1A2Y5); test: pNPβGlc hydrolysis, absorbance […] nm
T3 construct: gene BAD_1287; GH1; N-terminus from primer MKEQYE
T3 sequence (A1A2Y5 1-391): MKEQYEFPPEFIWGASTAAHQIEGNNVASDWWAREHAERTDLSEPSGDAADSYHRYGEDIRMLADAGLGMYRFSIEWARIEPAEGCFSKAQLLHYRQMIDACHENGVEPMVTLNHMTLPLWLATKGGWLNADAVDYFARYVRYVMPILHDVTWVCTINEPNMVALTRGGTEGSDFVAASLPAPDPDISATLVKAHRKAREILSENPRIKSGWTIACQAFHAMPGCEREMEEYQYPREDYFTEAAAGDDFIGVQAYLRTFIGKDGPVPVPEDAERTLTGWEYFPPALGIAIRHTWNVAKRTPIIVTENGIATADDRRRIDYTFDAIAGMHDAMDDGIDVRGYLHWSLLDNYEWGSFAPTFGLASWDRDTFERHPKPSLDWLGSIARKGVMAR

[4] = target: T2, BaBgl3B; test: pNPβGlc hydrolysis, absorbance […] nm; settings: competitive; pNPβGlc substrate; optimum pH 6.5, 50 °C
[5] = target: T3, BaBgl1A; test: pNPβGlc hydrolysis, absorbance […] nm; settings: competitive; pNPβGlc substrate; optimum pH 6.0, 30 °C

CC(C)=CCC[C@](C)(O[C@@H]1O[C@H](CO[C@@H]2O[C@H](CO)[C@@H](O)[C@H](O)[C@H]2O)[C@@H](O)[C@H](O)[C@H]1O)[C@H]1CC[C@]2(C)[C@@H]1[C@H](O)C[C@@H]1[C@@]3(C)CC[C@H](O[C@@H]4O[C@H](CO)[C@@H](O)[C@H](O)[C@H]4O[C@@H]4O[C@H](CO)[C@@H](O)[C@H](O)[C@H]4O)C(C)(C)[C@@H]3CC[C@]12C [Rb1]
TLC and HPLC of products [1]: Rb1 could be converted into Rd and Gyp XVII by BaBgl3A

OC[C@H]1OC(O)[C@@H](O)[C@@H](O)[C@@H]1O (some centres unmarked) [mannose]
inhibition at 1 M [2]: > 70% | inhibition at 1 M [3]: > 70%

OCC1(O)OC[C@@H](O)[C@@H](O)[C@@H]1O (some centres unmarked) [fructose]
% inhibition [4]: mannose and fructose acted as competitive inhibitors for BaBgl1A and BaBgl3B | % inhibition [5]: mannose and fructose acted as competitive inhibitors for BaBgl1A and BaBgl3B
